The text below walks through data of patent publication EP1862466A2, “Arrays with cleavable linkers” (THE SCRIPPS RESEARCH INSTITUTE, priority 2004, dated 2006).

For assay [1], the system named is MBr1 anti-Globo H monoclonal antibody (IgM). The experiment in a line: Microarray analysis of Globo H derivatives with MBr1 antibody. The assay is classed as binding, mouse. To be noted: sugars spotted on NHS-coated glass slide; FITC secondary antibody. The protocol:
NHS-coated glass slides were spotted with methanolic solutions of sugars 201-204a with concentrations of 5, 10, 20, 30, 40, 50, 60, 80 and 100 µM from bottom to top with ten duplicates horizontally placed in each grid. This attachment procedure is illustrated in FIG. 12. The slide was washed with PBS buffer for one minute.
This solution was added below the printed grid of sugars and then spread through the application of a coverslip. Incubation in a glass humidifying chamber was performed with shaking for 1 hour. Following this, the slide was washed 5x with 0.05 % tween20 / PBS buffer, 5x with PBS buffer and 5x with water. Next, 200 µL of a 70 µg/mL solution of FITC-tagged goat anti-mouse antibody (Cal Biochem) was formed and added to the slide as before. […] A fluorescence scan was then performed on the slide. The resulting image was analyzed using the program Imagene to locate and quantify the fluorescence of all the spots within the grid.
Disulfide linker immobilization (of type 217): The BOC protected derivative of disulfide linker 215 (3.9 mg, 13.5 µmol) was dissolved in 1 mL of dichloromethane and 1 mL trifluoroacetic acid was added. […] These solutions were spotted on a solid surface and analyzed along side 201-204a. […]
Images such as the one shown in FIG. 13 could then be processed using the program Imagene to encircle and quantify the fluorescence of each spot. […]

The next assay deals with chST6GalNAc-I. As to the kind of experiment: chST6GalNAc-I activity on small acceptor molecules (α-D-galacto derivatives). To be noted: substance used as acceptor. The assay is classed as biochemical, chicken. An excerpt: The inventors have previously reported the cloning, expression, and characterization of chicken ST6GalNAc-I and its use in preparative synthesis of the O-linked sialoside antigens, STn-, α(2-6)SiaT-, α(2-3)SiaT- and Di-SiaT-antigen. Blixt, O.;Allin, K.;Pereira, L.;Datta, A. and Paulson, J. C., J. Am. Chem. Soc. 2002, 124, 5739-5746. Briefly, the recombinant enzyme was expressed in insect cells and purified by CDP-sepharose affinity chromatography to generate approximately 10 U/L of cell culture. The enzymatic activity was evaluated on a set of small acceptor molecules. […] Table 6. chST6GalNAc-I Activity of α-D-Galacto Derivatives

Assay [2] concerns interaction between 2G12 and gp120. As to the kind of experiment: Solution phase ELISA: oligomannose inhibition of 2G12 binding to gp120. Details: species or system HIV-1. Particulars: oligomannose at 0.5 mM. The protocol: Enzyme-linked immunosorbent assay. Microtiter plate wells (flat bottom, Costar type 3690; Corning Inc.) were coated with 50 ng/well gp120JR-CSF overnight at 4°C. All subsequent steps were performed at room temperature. The wells were then washed four times with PBS/0.05% (vol/vol) Tween20 (Sigma) using a microplate washer (SkanWash 400, Molecular Devices) prior to blocking for 1 hr with 3% (mass/vol) BSA. IgG 2G12, diluted to 0.5 µg/mL (25 ng/well) with 1% (mass/vol) BSA/0.02% (vol/vol) Tween20/PBS (PBS-BT), was then added for 2 hrs to the antigen-coated wells in the presence of serially-diluted oligomannoses starting at 2mM. Unbound antibody was removed by washing four times, as described above. Bound 2G12 was detected with an alkaline phosphatase-conjugated goat anti-human IgG F(ab')2 antibody (Pierce) diluted 1:1000 in PBS-BT. After 1hr, the wells were washed four times and bound antibody was visualized with p-nitrophenol phosphate substrate (Sigma) and monitored at 405 nm.
Binding. Man9GlcNAc2 1 and deprotected oligomannoses 2-6 and 7-9 (see FIG. 17) were evaluated for their ability to inhibit the interaction between 2G12 and gp120 in a solution phase enzyme-linked immunosorbent assay (ELISA). […]
In general terms: In an ELISA, binding on a coated surface is turned into a signal by an enzyme label.

The next assay has as its system 2G12 antibody. As to the kind of experiment: Carbohydrate microarray analysis, microtiter-based, Scatchard plot (Kd). The class given is binding, human. To be noted: microtiter plate array. The protocol: Carbohydrate microarray analysis. Ninety-six well NHS-coated microtiter plates (NoAb Biodiscoveries) were treated with 200 µL of a 1 mM methanolic solution of the amino-functionalized disulfide and alkyne containing linker (scheme V) containing 5 % diisopropylethylamine (DIEA) and incubated overnight at 4°C. The microtiter plate was then washed with 2 x 200 µL methanol and 2 x 200 µL water. Next, 200 µL solutions of azido-functionalized oligomannose derivatives 21-25 at varying concentrations from 0 to 500 µM in 5 % DIEA / methanol were introduced. A sprinkle of copper (I) iodide was added and the contents were allowed to react overnight at 4°C. The next day, the contents were removed and the plates were washed with 2 x 200 µL methanol and 2 x 200 µL water. The plates were then blocked with 0.1 % Tween20 solution in HEPES buffer pH 7.5 at 4 °C for 1 hour and then washed with 3 x 200 µL HEPES buffer. Next, 200 µL of a 1 µg/mL solution of 2G12 antibody in 0.1 % Tween20 / PBS buffer was added to the wells for a 1 hour incubation at 4 °C and then washed with 2 x 200 µL PBS buffer. At this point, 200 µL of FITC-tagged goat anti-human IgG antibody (10 µg/mL in PBS, Cal Biochem) was added for 1 hour at 4 °C, and the wells were then washed with 2 x 200 µL PBS buffer. Detection of the FITC-tagged secondary antibody was performed in 200 µL water using a fluorescence plate reader. The resulting data yielded the oligomannose-2G12 binding isotherms and Scatchard plot analysis was implemented in the determination of dissociation constants. Adams et al. (2004) Chem. Biol. 11: 875-81.
Overall, many of the oligomannose derivatives can compete for binding of Man9GlcNAc2, and, therefore, may serve as building blocks for potential immunogens to elicit 2G12-like antibodies. Carbohydrate Microarray Analysis. Previous studies by the inventors using covalent microtiter plates with a panel of carbohydrate epitopes for interaction with 2G12 involved converting the amine-containing oligomannoses 4, 5, 7, 8 and 9 to the corresponding azide derivatives 21, 22, 23, 24 and 25. These derivatives were then covalently attached to a microplate-immobilized cleavable linker via the Cu (I)-catalyzed 1,3-dipolar cycloaddition reaction (FIG. 11B). Kd values for the interaction of 2G12 with oligomannoses 4, 5, 7, 8, 9 (Table 9) were determined using a microtiter-based assay with detection via a fluorescent secondary antibody (see Bryan et al.(2004) J. Am. Chem. Soc. 126, 8640-41). Table 9: The Kd values of oligomannoses 1 and 4, 5, 7, 8, 9 binding to 2G12, as determined by carbohydrate microarray analysis.

Turning to `C[C@@H]1O[C@@H](O[C@H]2[C@H](OCCCCCN)O[C@H](CO)[C@H](O)[C@@H]2O)[C@@H](O)[C@H](O)[C@@H]1O` [Compound 201a], the “binding of MBr1 antibody to immobilized sugar (in words)” value in assay [1] is “no recruitment of antibody to the surface”. Same read-out and setting: under `CC(=O)N[C@H]1[C@H](O[C@H]2[C@@H](O)[C@@H](CO)O[C@H](O[C@@H]3[C@H](O)[C@@H](O)[C@H](O[C@H]4[C@H](O)[C@@H](O)[C@H](OCCCCCN)O[C@@H]4CO)O[C@@H]3CO)[C@@H]2O)O[C@H](CO)[C@H](O)[C@@H]1O[C@@H]1O[C@H](CO)[C@H](O)[C@H](O)[C@H]1O[C@@H]1O[C@@H](C)[C@@H](O)[C@@H](O)[C@@H]1O` [Compound 204a] stands “greatest affinity”. On to `CC(=O)N[C@H]1C(O)O[C@H](CO)[C@H](O)[C@@H]1O` (stereo partly drawn) [D-GalNAc], for which, in the assay on chST6GalNAc-I, the “chST6GalNAc-I Activity, cpm” value is listed as 0 cpm and the “chST6GalNAc-I Activity, nmol/mg x min^-1” value stood at 0.00 nmol/mg x min^-1. `NCCCCCO[C@H]1O[C@H](CO[C@H]2O[C@H](CO)[C@@H](O)[C@H](O)[C@@H]2O[C@H]2O[C@H](CO)[C@@H](O)[C@H](O)[C@@H]2O)[C@@H](O)[C@H](O[C@H]2O[C@H](CO)[C@@H](O)[C@H](O)[C@@H]2O[C@H]2O[C@H](CO)[C@@H](O)[C@H](O)[C@@H]2O)[C@@H]1O` [Oligomannose 5]: in assay [2], the “inhibition (%) of 2G12 binding to gp120” value was 37.7%. For the same molecule, the “affinity for 2G12 antibodies (in words)” value in the assay with 2G12 antibody is listed as “greatest affinity”.
